The values below come from patent US7910573B2, “Crystalline forms of 11β-(4-acetylphenyl)-20,20,21,21,21-pentafluoro-17-hydroxy-19-nor-17α-pregna-4,9-dien-3-one” (Bayer Schering Pharma AG, priority 2006, dated 2011).

Type in all cases: physicochemical
The nature of data set [1]: Solubility in a water/ethanol mixture. Particulars: proportion of water 20 wt %. An excerpt:
This dependency is depicted in FIG. 7. […] The required proportion of water is distinctly higher for other systems, so that the displacement can be carried out only at high dilution and thus with an inadequate space yield.

The nature of data set [2]: Short-term stability on storage at elevated temperature and elevated humidity.
Data set [3] can be described thus: Solid form conversion of the amorphous active ingredient under stress conditions. Particulars: 15 d, 90° C./75% relative humidity. An excerpt:
It can be assumed that such a recrystallization also occurs on storage of the amorphous phase over a lengthy period at relatively low temperatures. Such a conversion is, however, undesired in the finished medicinal form because it may lead to an altered, non-reproducible release of the active ingredient, but may also influence the hardness of the medicinal form.

Data set [4] can be described thus: Stability on storage under light (20 kLux). The following applies: for decrease in the active ingredient content: initial values 98.4% and 95.4%. An excerpt: The greater stability of polymorph I is even clearer on storage under light. […] The initial values were 98.4% and 95.4% here too.
(§1) On use of 11β-(4-acetylphenyl)-20,20,21,21,21-pentafluoro-17-hydroxy-19-nor-17α-pregna-4,9-dien-3-one as active ingredient in pharmaceutical preparations, the profile of impurities is of crucial importance. A compound which occurs on storage of this active ingredient is 11β-(4-acetylphenyl)-20,20,21,21,21-pentafluoro-17-hydroxy-9,10-epoxy-19-nor-10α,17α-pregna-1,4-dien-3-one. The toxicity of this compound is known. The content of this impurity must be below 0.2% until the shelf life of the pharmaceutical formulation expires. […] The amorphous solid is therefore unsuitable without stabilization for use in a medicinal product. With polymorph I, however, the increase in this critical impurity is virtually zero. Elaborate stabilization on use of polymorph I is therefore no longer necessary. The formation of the abovementioned epoxy impurity on storage of amorphous 11β-(4-acetylphenyl)-20,20,21,21,21-pentafluoro-17-hydroxy-19-nor-17α-pregna-4,9-dien-3-one at a temperature of 70° C. is 0.6% after only 15 days and as much as 1.1% after 30 days. On the other hand, on storage of polymorph I at the same temperature for 30 days, just 0.1% of the epoxy impurity is detectable.

A short description of data set [5]: Short-term stability on storage at elevated temperature and elevated humidity. The following applies: 70° C.
Source text: This is shown on comparison of the results of the temperature tests, moisture tests and in particular in light exposure tests.
as §1

The mark [6] stands for this setting: 50° C., 75% rel. humidity, 15 days.
Where [7] appears, read: 50° C., 75% rel. humidity, 30 days.
Where [8] appears, read: 50° C., no rel. humidity given, 15 days, initial content 98.4% or 95.4%.
The mark [9] stands for this setting: 50° C., no rel. humidity given, 30 days, initial content 98.4% or 95.4%.
[10] abbreviates: 70° C., 75% rel. humidity, 15 days.
Setting [11] is: 70° C., 75% rel. humidity, 30 days.
The mark [12] stands for this setting: 70° C., no rel. humidity given, 15 days.
The mark [13] stands for this setting: 70° C., no rel. humidity given, 30 days.
Setting [14] is: 90° C., 75% rel. humidity, 15 days.
[15] abbreviates: 90° C., no rel. humidity given, 15 days.

With `CC(=O)c1ccc([C@H]2C[C@@]3(C)[C@@H](CC[C@@]3(O)C(F)(F)C(F)(F)F)[C@@H]3CCC4=CC(=O)CCC4=C32)cc1` [11β-(4-Acetylphenyl)-20,20,21,21,21-pentafluoro-17-hydroxy-19-nor-17α-pregna-4,9-dien-3-one], the “solubility relative to the solubility in pure ethanol” value in data set [1] is “one-hundredth”.

As to `CC(=O)c1ccc([C@H]2C[C@@]3(C)[C@@H](CC[C@@]3(O)C(F)(F)C(F)(F)F)[C@@H]3CCC4=CC(=O)CCC4=C32)cc1` [amorphous, 11β-(4-acetylphenyl)-20,20,21,21,21-pentafluoro-17-hydroxy-19-nor-17α-pregna-4,9-dien-3-one], the “decrease in the active ingredient content” value (“decrease” for short) in data set [2] (setting [6]) was −2.8%; in data set [2] (setting [7]) it was −3.3%; in data set [2] (setting [8]) it was −2.9%; in data set [2] (setting [9]), −5.1%; in data set [2] (setting [10]), −13.5%; in data set [2] (setting [11]), −17.4%. The “decrease” value in data set [2] (setting [12]) is on record as −10.2%; in data set [2] (setting [13]), −17.3%; in data set [2] (setting [14]), −31.7%; in data set [2] (setting [15]), −32.6%; in data set [4] (storage under 20 kLux for 42 h), −34%; in data set [4] (storage under 20 kLux for 66 h), −42%. Moreover, the “change of solid form on storage” value in data set [3] is reported as “Partial recrystallization to give polymorph I”. The “increase in the epoxy impurity” value in data set [4] (20 kLux, 42 h) is listed as 8.4%; in data set [4] (20 kLux, 66 h), 11.2%. The “formation of the epoxy impurity on storage” value in data set [5] (15 days) is listed as 0.6%; in data set [5] (30 days), 1.1%.

As for `CC(=O)c1ccc([C@H]2C[C@@]3(C)[C@@H](CC[C@@]3(O)C(F)(F)C(F)(F)F)[C@@H]3CCC4=CC(=O)CCC4=C32)cc1` [polymorph I, 11β-(4-acetylphenyl)-20,20,21,21,21-pentafluoro-17-hydroxy-19-nor-17α-pregna-4,9-dien-3-one], the “decrease” value in data set [2] (setting [6]) is listed as 0%; in data set [2] (setting [7]), −0.1%; in data set [2] (setting [8]), 0%; in data set [2] (setting [9]), −0.3%; in data set [2] (setting [10]), −0.1%; in data set [2] (setting [11]), −0.2%. In addition, the “decrease” value in data set [2] (setting [12]) is on record as −1.5%; in data set [2] (setting [13]) it was −3.5%; in data set [2] (setting [14]) it was −0.2%; in data set [2] (setting [15]) it was −3.6%; in data set [4] (storage under 20 kLux for 42 h) it was −0.2%; in data set [4] (storage under 20 kLux for 66 h) it was −0.4%. Also, the “increase in the epoxy impurity” value in data set [4] (20 kLux, 42 h) is listed as 0.1%; in data set [4] (20 kLux, 66 h) it was 0.1%; in data set [4] (storage under stress conditions and under light) it was “below 0.2%”. Also, the “formation of the epoxy impurity on storage” value in data set [5] (30 days) was 0.1%.
